ChEMBL document CHEMBL1201862, “PubChem BioAssay data set” (2004)
The source made the active and inactive calls.

Columns and labels:
Vero = assay: cells; assay type: functional, cell-based; conditions: Chlorocebus sabaeus
[1] = target: Intestinal-type alkaline phosphatase (Homo sapiens, UniProt P09923); assay: inhibition of human intestinal alkaline phosphatase – biochemical, dose response (AID 488876); assay type: functional
[2] = target: Intestinal-type alkaline phosphatase (Mus musculus, UniProt P24822); assay: PubChem AID 488785; assay type: functional
Sequence of Intestinal-type alkaline phosphatase (Mus musculus, UniProt P24822) (P24822 whole entry): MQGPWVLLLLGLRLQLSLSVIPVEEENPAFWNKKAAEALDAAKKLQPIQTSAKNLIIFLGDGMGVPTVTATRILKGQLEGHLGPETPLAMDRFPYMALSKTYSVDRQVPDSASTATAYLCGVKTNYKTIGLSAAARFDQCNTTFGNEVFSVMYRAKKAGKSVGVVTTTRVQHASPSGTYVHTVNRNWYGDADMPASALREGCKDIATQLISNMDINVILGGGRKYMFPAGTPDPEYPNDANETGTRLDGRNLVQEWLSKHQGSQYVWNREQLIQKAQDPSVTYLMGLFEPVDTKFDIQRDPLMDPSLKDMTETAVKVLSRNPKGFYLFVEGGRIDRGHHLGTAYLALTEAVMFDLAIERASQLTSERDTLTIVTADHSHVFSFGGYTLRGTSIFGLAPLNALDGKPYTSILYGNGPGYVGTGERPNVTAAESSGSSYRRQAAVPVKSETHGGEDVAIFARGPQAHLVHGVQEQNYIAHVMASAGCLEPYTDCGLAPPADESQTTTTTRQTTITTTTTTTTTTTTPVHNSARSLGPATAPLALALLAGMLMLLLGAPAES

[3] = target: T1, Alkaline phosphatase, tissue-nonspecific isozyme (Homo sapiens, UniProt P05186); assay: TNAP enzyme inhibition by screening hits, dose response, selectivity assay for mouse IAP inhibitor project, biochemical, human TNAP, uHTS hits (AID 488906); assay type: functional
T1 sequence (P05186 whole entry): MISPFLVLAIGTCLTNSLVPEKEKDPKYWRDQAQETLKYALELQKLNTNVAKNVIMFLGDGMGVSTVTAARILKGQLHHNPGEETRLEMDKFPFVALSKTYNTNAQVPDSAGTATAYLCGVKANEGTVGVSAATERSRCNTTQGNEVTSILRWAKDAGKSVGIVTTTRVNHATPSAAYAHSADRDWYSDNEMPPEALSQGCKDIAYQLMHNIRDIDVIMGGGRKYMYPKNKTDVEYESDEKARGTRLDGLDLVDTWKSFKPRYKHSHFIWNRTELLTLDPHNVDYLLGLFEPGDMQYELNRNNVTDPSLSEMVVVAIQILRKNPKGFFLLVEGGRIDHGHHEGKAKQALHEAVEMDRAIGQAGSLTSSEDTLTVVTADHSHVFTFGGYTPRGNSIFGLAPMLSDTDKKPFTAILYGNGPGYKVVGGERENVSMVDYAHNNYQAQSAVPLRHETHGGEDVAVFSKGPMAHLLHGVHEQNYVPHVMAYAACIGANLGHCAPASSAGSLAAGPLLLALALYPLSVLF

CAAX prenyl protease 2 = target: T2, CAAX prenyl protease 2 (Saccharomyces cerevisiae S288c, UniProt Q03530); assay type: biochemical
T2 sequence (Q03530 whole entry): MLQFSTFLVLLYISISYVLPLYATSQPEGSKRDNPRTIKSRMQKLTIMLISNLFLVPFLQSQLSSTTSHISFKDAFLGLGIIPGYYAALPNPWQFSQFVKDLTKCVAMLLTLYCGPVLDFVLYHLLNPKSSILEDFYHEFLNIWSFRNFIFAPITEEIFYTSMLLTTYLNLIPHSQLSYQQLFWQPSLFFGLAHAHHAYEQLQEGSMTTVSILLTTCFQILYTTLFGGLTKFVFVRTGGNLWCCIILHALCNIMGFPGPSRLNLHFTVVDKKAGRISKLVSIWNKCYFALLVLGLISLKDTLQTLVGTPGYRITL

[4] = Luminescence Cell-Based Dose Retest to Confirm Inhibitors of Cancer Stem Cells. [Related pubchem assays (depositor defined):AID2717, AID2721]; assay type: functional; conditions: Homo sapiens
[5] = cytotoxicity in HMLE control line with eGFP shRNA, dose response, counter-screen for HMLE_sh_ECad selective toxicity project, cell-based, HMLE_sh_eGFP, luminescence (AID 463074); assay type: functional, Homo sapiens;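 also: HMLE human mammary epithelial cells expressing control shRNA against eGFP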
Trypsin = Trypsin (Sus scrofa, UniProt P00761); assay: porcine trypsin inhibitors, dose response, selectivity assay for Rce1 protease inhibitor project, biochemical, quenched peptide fluorescence, cherry-pick (AID 488789)
Sequence of Trypsin (P00761 whole entry): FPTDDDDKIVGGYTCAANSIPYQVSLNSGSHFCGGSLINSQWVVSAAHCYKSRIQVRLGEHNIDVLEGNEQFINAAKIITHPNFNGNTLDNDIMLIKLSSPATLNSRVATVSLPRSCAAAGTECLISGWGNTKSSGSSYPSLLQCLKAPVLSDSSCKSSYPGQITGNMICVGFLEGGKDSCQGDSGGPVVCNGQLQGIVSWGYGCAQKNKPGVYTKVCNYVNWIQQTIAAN

[6] = target: T3, Nuclear receptor subfamily 0 group B member 1 (Homo sapiens, UniProt P51843); assay: Luminescence-based cell-based high throughput dose response assay for inhibitors of the orphan nuclear receptor subfamily 0, group B, member 1 (DAX1; NR0B1). [Related pubchem assays (depositor defined):AID504766, AID504790]; assay type: functional
T3 sequence (P51843 whole entry): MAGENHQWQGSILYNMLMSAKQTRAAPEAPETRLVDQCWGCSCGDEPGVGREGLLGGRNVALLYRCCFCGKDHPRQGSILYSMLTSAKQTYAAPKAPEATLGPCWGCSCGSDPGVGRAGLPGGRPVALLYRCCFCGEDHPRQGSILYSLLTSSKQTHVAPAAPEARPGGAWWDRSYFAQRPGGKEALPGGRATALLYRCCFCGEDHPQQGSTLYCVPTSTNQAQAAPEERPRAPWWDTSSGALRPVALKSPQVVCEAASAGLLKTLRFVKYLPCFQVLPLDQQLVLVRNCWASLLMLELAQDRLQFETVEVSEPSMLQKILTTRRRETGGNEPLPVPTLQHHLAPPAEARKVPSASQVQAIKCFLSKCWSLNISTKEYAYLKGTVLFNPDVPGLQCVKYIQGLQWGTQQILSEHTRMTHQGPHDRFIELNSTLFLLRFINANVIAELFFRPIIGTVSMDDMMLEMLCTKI

HEK293 = assay: cells; assay type: functional, cell-based; conditions: Homo sapiens
Streptokinase A = target: T4, Streptokinase A (Streptococcus pyogenes serotype M1, UniProt P10520); assay: S. pyogenes streptokinase expression inhibitors, potency, dose response, plasminogen activation absorbance, OD405 (AID 1914); assay type: functional, Streptococcus pyogenes M1 GAS;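 also: secreted streptokinase activity via plasminogen activation per viability signal from cell pellet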
T4 sequence (P10520 whole entry): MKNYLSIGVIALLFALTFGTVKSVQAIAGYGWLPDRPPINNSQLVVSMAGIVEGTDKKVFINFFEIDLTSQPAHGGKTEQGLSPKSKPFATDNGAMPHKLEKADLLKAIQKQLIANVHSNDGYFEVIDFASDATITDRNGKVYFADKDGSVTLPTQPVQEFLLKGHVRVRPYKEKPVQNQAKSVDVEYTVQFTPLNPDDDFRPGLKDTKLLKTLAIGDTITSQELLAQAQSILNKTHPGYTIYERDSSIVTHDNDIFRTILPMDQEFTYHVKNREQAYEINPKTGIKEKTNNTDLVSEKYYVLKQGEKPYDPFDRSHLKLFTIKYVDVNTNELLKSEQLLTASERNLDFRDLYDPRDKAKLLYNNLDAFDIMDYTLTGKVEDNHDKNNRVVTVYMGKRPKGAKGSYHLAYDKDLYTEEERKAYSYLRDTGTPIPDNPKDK

[7] = tested on: Streptococcus sp. 'group A'; assay: growth inhibition of control SK(-) GAS strain, dose response, counter-screen for streptokinase expression inhibitor project, luminescence, kanamycin, BacTiterGlo, confirmation (AID 1900); assay type: functional, organism-based
Streptococcus = assay: Group A Streptococcus viability loss, dose response, counter-screen for streptokinase expression inhibitor project, luminescence, BacTiterGlo (AID 1915); assay type: functional, organism-based;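 also: potency for reduction of bacterial viability or growth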
Escherichia coli = assay: microbe, parasite or virus in culture
Cytochrome P450 2D6 = Cytochrome P450 2D6 (Homo sapiens, UniProt P10635);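 also: CYP2D6 member of a cytochrome P450 panel assay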
Sequence of Cytochrome P450 2D6 (P10635 whole entry): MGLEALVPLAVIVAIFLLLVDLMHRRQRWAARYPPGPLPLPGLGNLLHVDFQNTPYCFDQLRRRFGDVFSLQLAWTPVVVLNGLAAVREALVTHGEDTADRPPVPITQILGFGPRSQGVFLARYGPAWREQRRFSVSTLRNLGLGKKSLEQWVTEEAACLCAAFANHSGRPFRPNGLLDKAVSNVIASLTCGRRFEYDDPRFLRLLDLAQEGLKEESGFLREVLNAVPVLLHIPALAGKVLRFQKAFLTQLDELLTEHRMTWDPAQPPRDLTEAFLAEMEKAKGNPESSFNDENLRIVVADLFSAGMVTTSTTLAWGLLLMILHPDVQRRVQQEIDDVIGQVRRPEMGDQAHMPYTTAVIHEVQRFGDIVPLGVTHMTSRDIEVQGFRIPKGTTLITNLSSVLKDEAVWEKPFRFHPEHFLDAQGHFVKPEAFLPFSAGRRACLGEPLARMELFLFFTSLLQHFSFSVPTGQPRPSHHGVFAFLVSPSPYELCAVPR

Cytochrome P450 2C19 = Cytochrome P450 2C19 (Homo sapiens, UniProt P33261); assay: Cytochrome panel assay with activity outcomes. Panel member name: p450-cyp2c19 Compounds with AC50 equal or less than 10 uM are considered active; assay type: functional
Phosphomannomutase 2 = target: T5, Phosphomannomutase 2 (Homo sapiens, UniProt O15305); assay: Counter screen SAR assay for PMM2 inhibitors via a fluorescence intensity assay. [Related pubchem assays (depositor defined):AID1545, AID1574]
T5 sequence (O15305 whole entry): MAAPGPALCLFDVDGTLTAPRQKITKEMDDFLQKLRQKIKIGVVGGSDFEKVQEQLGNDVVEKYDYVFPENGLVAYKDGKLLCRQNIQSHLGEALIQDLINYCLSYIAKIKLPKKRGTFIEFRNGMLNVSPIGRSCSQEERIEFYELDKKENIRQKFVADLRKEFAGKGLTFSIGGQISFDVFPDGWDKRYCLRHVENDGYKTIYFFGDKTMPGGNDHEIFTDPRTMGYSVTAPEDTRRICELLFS

[8] = target: T6, Mannose-6-phosphate isomerase (Homo sapiens, UniProt P34949); assay: PMI enzyme inhibitors, confirmation, biochemical, fluorescence intensity (AID 1535)
T6 sequence (P34949 whole entry): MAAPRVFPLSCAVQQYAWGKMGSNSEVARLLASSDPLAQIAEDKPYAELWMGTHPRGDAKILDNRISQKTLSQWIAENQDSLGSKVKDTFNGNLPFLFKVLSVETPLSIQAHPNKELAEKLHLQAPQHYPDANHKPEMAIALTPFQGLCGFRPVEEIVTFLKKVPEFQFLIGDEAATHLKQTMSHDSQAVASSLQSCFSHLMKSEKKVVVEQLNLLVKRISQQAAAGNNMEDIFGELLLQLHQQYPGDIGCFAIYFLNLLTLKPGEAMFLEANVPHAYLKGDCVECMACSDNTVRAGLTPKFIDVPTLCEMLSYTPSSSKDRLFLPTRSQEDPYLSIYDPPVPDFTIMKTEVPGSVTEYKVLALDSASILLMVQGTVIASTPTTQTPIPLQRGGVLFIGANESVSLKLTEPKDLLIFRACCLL

[9] = target: T7, Phosphoethanolamine/phosphocholine phosphatase (Homo sapiens, UniProt Q8TCT1); assay: SAR assay for compounds that inhibit PHOSPHO1. [Related pubchem assays (depositor defined):AID1545, AID1565, AID1574]
T7 sequence (Q8TCT1 whole entry): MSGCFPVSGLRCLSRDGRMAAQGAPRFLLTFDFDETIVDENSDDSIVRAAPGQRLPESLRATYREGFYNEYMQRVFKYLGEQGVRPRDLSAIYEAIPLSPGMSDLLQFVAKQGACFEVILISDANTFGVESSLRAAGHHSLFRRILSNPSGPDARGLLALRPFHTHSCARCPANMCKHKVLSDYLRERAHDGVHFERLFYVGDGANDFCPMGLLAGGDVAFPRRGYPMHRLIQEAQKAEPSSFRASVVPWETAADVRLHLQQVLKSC

Cytochrome P450 1A2 = target: T8, Cytochrome P450 1A2 (Homo sapiens, UniProt P05177);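 also: PubChem cytochrome P450 panel assay, CYP1A2 panel member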
T8 sequence (P05177 whole entry): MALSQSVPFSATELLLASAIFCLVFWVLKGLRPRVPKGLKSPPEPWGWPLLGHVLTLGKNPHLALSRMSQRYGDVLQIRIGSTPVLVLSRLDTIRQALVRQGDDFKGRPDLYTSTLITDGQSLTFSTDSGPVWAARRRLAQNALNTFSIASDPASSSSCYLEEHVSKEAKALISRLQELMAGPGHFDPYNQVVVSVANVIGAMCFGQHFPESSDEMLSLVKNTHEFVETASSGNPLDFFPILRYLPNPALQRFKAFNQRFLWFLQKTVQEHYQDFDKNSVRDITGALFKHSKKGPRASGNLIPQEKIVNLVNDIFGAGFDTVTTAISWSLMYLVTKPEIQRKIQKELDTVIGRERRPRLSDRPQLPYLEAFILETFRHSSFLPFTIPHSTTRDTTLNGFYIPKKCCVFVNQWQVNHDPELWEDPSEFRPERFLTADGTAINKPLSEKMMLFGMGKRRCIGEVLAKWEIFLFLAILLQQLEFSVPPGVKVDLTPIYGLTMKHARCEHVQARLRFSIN

[10] = target: T9, Voltage-gated N-type calcium channel alpha-1B subunit/Amyloid beta A4 precursor protein-binding family A member 1 (Homo sapiens, UniProt Q00975+Q02410); assay type: protein assay
T9 sequence (Q00975 whole entry): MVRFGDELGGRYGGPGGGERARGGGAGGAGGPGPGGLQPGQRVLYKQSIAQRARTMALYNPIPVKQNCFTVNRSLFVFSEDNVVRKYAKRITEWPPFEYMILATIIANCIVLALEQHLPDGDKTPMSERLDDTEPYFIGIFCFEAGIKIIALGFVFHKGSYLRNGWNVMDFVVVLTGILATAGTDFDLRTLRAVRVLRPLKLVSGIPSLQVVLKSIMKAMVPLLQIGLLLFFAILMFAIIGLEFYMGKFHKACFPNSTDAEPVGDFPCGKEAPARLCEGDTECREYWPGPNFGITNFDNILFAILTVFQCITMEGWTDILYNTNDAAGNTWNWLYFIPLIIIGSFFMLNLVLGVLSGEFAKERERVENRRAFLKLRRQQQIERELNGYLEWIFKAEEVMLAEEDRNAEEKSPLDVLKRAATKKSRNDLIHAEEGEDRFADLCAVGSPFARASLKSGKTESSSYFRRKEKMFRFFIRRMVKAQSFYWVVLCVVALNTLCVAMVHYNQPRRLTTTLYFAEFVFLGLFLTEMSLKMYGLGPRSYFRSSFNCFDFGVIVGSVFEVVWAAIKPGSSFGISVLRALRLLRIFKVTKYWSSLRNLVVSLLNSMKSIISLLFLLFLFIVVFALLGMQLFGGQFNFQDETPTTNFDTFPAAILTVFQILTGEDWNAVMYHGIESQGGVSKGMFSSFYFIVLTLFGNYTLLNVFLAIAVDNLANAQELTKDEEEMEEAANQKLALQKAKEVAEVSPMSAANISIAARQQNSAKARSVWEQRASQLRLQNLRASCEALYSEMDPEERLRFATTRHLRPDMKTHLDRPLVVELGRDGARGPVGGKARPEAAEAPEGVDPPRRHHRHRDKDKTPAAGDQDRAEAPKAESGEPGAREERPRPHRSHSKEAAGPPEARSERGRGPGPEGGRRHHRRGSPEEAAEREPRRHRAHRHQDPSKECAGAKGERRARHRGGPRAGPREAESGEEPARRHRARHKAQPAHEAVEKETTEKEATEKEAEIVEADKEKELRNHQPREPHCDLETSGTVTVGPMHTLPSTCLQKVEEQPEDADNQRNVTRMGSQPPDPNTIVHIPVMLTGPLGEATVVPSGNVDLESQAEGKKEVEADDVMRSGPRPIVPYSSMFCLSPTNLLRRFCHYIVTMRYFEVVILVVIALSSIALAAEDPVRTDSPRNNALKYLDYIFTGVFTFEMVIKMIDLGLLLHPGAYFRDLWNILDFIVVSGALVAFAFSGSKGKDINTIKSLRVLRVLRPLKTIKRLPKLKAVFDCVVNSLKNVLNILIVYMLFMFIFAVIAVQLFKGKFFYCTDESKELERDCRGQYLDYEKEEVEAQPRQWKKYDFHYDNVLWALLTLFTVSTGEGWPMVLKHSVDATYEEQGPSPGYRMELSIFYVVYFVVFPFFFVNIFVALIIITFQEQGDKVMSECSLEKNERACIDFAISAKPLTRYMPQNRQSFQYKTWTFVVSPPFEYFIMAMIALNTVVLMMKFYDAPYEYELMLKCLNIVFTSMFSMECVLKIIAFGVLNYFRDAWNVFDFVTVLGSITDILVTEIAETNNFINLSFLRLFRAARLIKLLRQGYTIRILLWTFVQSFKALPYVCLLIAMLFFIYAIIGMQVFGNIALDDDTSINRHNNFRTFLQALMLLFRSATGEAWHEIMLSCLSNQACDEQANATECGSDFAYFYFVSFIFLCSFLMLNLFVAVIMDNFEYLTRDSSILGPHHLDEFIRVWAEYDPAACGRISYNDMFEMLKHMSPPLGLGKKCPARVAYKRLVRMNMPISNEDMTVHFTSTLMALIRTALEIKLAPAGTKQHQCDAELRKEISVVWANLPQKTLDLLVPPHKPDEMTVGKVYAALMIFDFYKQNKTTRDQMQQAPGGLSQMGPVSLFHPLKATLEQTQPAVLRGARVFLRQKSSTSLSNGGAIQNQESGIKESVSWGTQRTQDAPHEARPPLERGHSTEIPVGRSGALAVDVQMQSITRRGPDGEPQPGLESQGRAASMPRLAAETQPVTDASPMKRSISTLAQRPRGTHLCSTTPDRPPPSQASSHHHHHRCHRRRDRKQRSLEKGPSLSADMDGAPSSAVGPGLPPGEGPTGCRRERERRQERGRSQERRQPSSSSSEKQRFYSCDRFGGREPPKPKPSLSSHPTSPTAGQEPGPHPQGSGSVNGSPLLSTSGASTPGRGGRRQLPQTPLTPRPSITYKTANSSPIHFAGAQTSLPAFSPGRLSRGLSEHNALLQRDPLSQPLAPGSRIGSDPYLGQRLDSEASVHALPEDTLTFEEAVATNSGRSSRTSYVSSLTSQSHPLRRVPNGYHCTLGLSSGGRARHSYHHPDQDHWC
T9 sequence (Q02410 whole entry): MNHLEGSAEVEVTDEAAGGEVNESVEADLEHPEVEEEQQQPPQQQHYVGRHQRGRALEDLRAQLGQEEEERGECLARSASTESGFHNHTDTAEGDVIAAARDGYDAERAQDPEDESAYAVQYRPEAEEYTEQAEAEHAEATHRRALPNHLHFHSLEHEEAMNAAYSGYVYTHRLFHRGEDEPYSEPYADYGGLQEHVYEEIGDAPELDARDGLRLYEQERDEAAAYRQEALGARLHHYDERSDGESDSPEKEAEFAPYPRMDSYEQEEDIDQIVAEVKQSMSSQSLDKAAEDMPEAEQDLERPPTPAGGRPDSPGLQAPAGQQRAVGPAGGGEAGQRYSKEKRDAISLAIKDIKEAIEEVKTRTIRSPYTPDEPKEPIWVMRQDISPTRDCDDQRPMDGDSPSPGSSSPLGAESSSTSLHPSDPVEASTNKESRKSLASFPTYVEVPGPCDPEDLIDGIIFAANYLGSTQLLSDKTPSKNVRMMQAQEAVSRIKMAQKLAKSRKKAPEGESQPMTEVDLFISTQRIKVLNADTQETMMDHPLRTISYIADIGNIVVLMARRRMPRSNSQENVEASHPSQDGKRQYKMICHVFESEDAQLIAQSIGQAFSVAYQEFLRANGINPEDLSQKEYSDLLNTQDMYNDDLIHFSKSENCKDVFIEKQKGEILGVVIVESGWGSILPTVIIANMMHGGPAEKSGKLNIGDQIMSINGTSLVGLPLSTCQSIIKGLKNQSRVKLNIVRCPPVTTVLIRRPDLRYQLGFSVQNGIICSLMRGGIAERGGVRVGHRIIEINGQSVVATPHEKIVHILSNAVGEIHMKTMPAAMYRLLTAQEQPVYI

[11] = target: T9, Voltage-gated N-type calcium channel alpha-1B subunit/Amyloid beta A4 precursor protein-binding family A member 1; assay type: protein assay; remark: listed apart in the source

Sequence of Intestinal-type alkaline phosphatase (Homo sapiens, UniProt P09923) (P09923 whole entry): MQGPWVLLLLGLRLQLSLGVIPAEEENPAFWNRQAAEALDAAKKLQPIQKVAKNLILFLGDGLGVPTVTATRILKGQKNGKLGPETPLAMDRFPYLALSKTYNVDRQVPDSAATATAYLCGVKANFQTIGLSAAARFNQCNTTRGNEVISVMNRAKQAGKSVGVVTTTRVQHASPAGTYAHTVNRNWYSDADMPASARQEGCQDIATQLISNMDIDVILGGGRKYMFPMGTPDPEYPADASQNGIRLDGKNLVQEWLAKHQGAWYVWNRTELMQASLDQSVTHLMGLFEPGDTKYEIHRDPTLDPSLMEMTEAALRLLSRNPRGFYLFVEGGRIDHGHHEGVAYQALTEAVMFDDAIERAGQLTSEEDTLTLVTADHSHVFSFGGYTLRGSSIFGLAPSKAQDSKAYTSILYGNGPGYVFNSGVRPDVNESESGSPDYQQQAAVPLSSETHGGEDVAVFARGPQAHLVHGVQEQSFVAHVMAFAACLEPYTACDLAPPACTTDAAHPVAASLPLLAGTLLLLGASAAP

CCCn1cnc2c(SCc3ccccc3Cl)nc(N)nc21
IC50 (Vero): > 25 µM (active)

Cc1ccc(C)c(NS(=O)(=O)c2ccc3[nH]c(=O)oc3c2)c1
IC50 [1]: > 100 µM (inactive) | IC50 [2]: 15.7 µM (active) | IC50 [3]: > 100 µM (inactive)

COCc1c(C(=O)N/N=C/C2CC=CCC2)nnn1-c1nonc1N (centres undefined)
AC50 (CAAX prenyl protease 2): 29.9 µM (active)

O=C(CSc1ccc2ccccc2c1Br)Nc1cccc(S(=O)(=O)NC2=NCCCCC2)c1
AC50 [4]: 1.92 µM (active) | AC50 [5]: 48 µM (active)

CC1CCN(C(=O)c2cc3nc(-c4ccccc4)cc(-c4ccccc4)n3n2)CC1
AC50 (CAAX prenyl protease 2): 19.1 µM (active) | AC50 (Trypsin): > 100 µM (inactive)

O=S(=O)(NCC1NCCc2ccccc21)c1ccccc1 (centres undefined)
IC50 [6]: > 67.6 µM (inactive) | IC50 (HEK293): > 67.6 µM (inactive)

C=CCN(CC=C)S(=O)(=O)c1ccc(NC(=S)NC(=O)C2CC2)cc1
EC50 (Streptokinase A): > 150 µM (not active) | EC50 [7]: > 150 µM (not active) | EC50 (Streptococcus): > 150 µM (not active) | AC50 (Escherichia coli): 29.4 µM (active)

CN(C)CCNC(=O)C1CCCNC1=O (centres undefined)
AC50 (Cytochrome P450 2D6): inconclusive | AC50 (Cytochrome P450 2C19): inconclusive

CCOC(=O)C1(Cc2cccc(F)c2)CCN(C2CCOCC2)CC1
AC50 (Escherichia coli): 35.1 µM (active)

Cc1cccc(-n2sc3cc(F)ccc3c2=O)c1C
IC50 (Phosphomannomutase 2): 18.3 µM (active) | IC50 [8]: 22.7 µM (active) | IC50 [9]: 6.54 µM (inactive)

C=CCn1/c(=N/C(=O)c2ccc(S(=O)(=O)N3CCCc4ccccc43)cc2)sc2cc(S(N)(=O)=O)ccc21
AC50 [4]: 2.01 µM (active) | AC50 [5]: 84.8 µM (active)

COc1cccc(S(=O)(=O)NCc2ccc(C(=O)Nc3ccc(Cl)cc3)cc2)c1
AC50 [4]: 35 µM (active) | AC50 [5]: 102 µM (active)

COc1ccc2c(c1)c(CC(=O)O)c(C)n2C(=O)c1ccccc1
AC50 (Cytochrome P450 1A2): 12.6 µM (inconclusive) | AC50 (Cytochrome P450 2D6): inconclusive

CCOC(=O)c1sc(-c2ccccc2)cc1NC(=O)Nc1ccc([N+](=O)[O-])cc1
AC50 (Escherichia coli): 35 µM (active)

COc1ccc(N2CC(C(=O)Nc3cc(C)on3)CC2=O)cc1 (centres undefined)
AC50 (Cytochrome P450 2D6): inconclusive

Cc1cccc(-n2sc3ccccc3c2=O)c1
IC50 (Phosphomannomutase 2): 22.3 µM (active) | IC50 [8]: 5.29 µM (active) | IC50 [9]: 2.73 µM (inactive)

Cc1cccc(CN2CCN(C(S)=Nc3ccccc3)CC2)c1
IC50 [6]: > 67.6 µM (inactive) | IC50 (HEK293): > 67.6 µM (inactive)

Cc1cccnc1NC(=S)Nc1ccc(F)cc1F
IC50 [10]: 11.5 µM (active) | IC50 [11]: > 50 µM (inactive)

CCOC(=O)c1cc(-c2ccc(F)cc2)nc2c1c(=O)[nH]c(=O)n2Cc1ccccc1
IC50 [10]: > 56.8 µM (not active) | IC50 [11]: > 50 µM (inactive)

FC(F)Oc1ccc(NC(S)=NC2CCSc3ccccc32)cc1 (centres undefined)
IC50 [1]: > 100 µM (inactive) | IC50 [2]: 5.64 µM (active) | IC50 [3]: > 100 µM (inactive)

Cc1c(Cl)cccc1-n1sc2cc([N+](=O)[O-])cc(OCC(F)(F)F)c2c1=O
IC50 (Phosphomannomutase 2): 9.06 µM (active) | IC50 [8]: 3.03 µM (active) | IC50 [9]: 0.555 µM (active)
